Calls of active or inactive are those of the source. No cut-off for these calls is given here.
How the values were obtained:
CYP450 [1] = assay: Drug metabolism in mouse liver S9 fraction assessed as CYP450-mediated metabolism by measuring parent compound remaining at 5 uM measured after 30 mins in presence of NADPH by UPLC analysis; assay type: ADME, subcellular; conditions: read-out: Stability
Trypanosoma brucei [2] = assay: Resistance factor, ratio of EC50 for pentamidine/diminazene/melaminophenyl arsenical resistant Trypanosoma brucei B48 to EC50 for wild type Trypanosoma brucei Lister 427; assay type: functional
UGT [3] = assay: Drug metabolism in mouse liver S9 fraction assessed as UGT-mediated metabolism by measuring parent compound remaining at 5 uM measured immediately in presence of UDPGA by UPLC analysis; assay type: ADME, subcellular; conditions: read-out: Stability
[4] = tested on: Trypanosoma brucei brucei; assay: Antitrypanosomal activity against Trypanosoma brucei brucei Squib 427 after 48 hrs by alamar blue assay; assay type: functional, organism-based; conditions: Squib 427, 48 h
UGT [5] = molecular target: T1, UGT (Homo sapiens, UniProt O60656+O75310+O75795+P06133+P0DTE4+P0DTE5+P16662+P19224+P22309+P22310+P35503+P35504+P36537+P54855+Q6UWM9+Q9BY64+Q9HAW7+Q9HAW8+Q9HAW9); assay: Drug metabolism in human liver S9 fraction assessed as UGT-mediated metabolism by measuring parent compound remaining at 5 uM measured after 60 mins in presence of UDPGA by UPLC analysis; assay type: ADME, subcellular; conditions: read-out: Stability
[6] = tested on: UDP-glucuronosyltransferases (UGTs); assay: Drug metabolism in human liver S9 fraction assessed as UGT-mediated metabolism by measuring parent compound remaining at 5 uM measured after 15 mins in presence of UDPGA by UPLC analysis; assay type: ADME, subcellular; conditions: s9, 0.25 h
CYP450 [7] = assay: Drug metabolism in rat liver S9 fraction assessed as CYP450-mediated metabolism by measuring parent compound remaining at 5 uM measured after 30 mins in presence of NADPH by UPLC analysis; assay type: ADME, subcellular; conditions: read-out: Stability
[8] = Selectivity index, ratio of EC50 for human MRC5 cells to EC50 for Trypanosoma brucei rhodesiense STIB-900; assay type: toxicity; conditions: read-out: Ratio EC50
UGT [9] = assay: Drug metabolism in mouse liver S9 fraction assessed as UGT-mediated metabolism by measuring parent compound remaining at 5 uM measured after 30 mins in presence of UDPGA by UPLC analysis; assay type: ADME, subcellular; conditions: read-out: Stability
[10] = Inhibition of [3H]-adenosine transport at Trypanosoma brucei Adenosine transporter P1 expressed in pentamidine/diminazene/melaminophenyl arsenical resistant Trypanosoma brucei B48 bloodstream forms after 60 secs by scintillation counting analysis
UGT [11] = assay: Drug metabolism in rat liver S9 fraction assessed as UGT-mediated metabolism by measuring parent compound remaining at 5 uM measured immediately in presence of UDPGA by UPLC analysis; assay type: ADME, subcellular; conditions: read-out: Stability
Trypanosoma brucei [12] = assay: Antitrypanosomal activity against pentamidine/diminazene/melaminophenyl arsenical resistant Trypanosoma brucei B48 after 48 hrs by alamar blue assay; assay type: functional, organism-based; conditions: B48, 48 h
Trypanosoma congolense = assay: Antitrypanosomal activity against Trypanosoma congolense by resazurin assay; assay type: functional, organism-based
CYP450 [13] = assay: Drug metabolism in rat liver S9 fraction assessed as CYP450-mediated metabolism by measuring parent compound remaining at 5 uM measured immediately in presence of NADPH by UPLC analysis; assay type: ADME, subcellular; conditions: read-out: Stability
CYP450 [14] = assay: Drug metabolism in mouse liver S9 fraction assessed as CYP450-mediated metabolism by measuring parent compound remaining at 5 uM measured after 15 mins in presence of NADPH by UPLC analysis; assay type: ADME, subcellular; conditions: read-out: Stability
[15] = Drug metabolism in rat liver S9 fraction assessed as UGT-mediated metabolism by measuring parent compound remaining at 5 uM measured after 30 mins in presence of UDPGA by UPLC analysis; assay type: ADME, subcellular; conditions: s9, 0.5 h
CYP450 [16] = molecular target: T2, CYP450 (Homo sapiens, UniProt P04798+P05177+P05181+P08684+P10632+P10635+P11509+P11712+P13584+P20813+P20815+P20853+P24462+P24903+P33260+P33261+P51589+P78329+P98187+Q02928+Q08477+Q16678+Q16696+Q5TCH4+Q6VVX0+Q7Z449+Q8TAV3+Q96SQ9+Q9HB55); assay: Drug metabolism in human liver S9 fraction assessed as CYP450-mediated metabolism by measuring parent compound remaining at 5 uM measured after 30 mins in presence of NADPH by UPLC analysis; assay type: ADME, subcellular; conditions: read-out: Stability
[17] = Inhibition of [3H]-adenosine transport at Trypanosoma brucei Adenosine transporter P2 expressed in pentamidine/diminazene/melaminophenyl arsenical resistant Trypanosoma brucei B48 bloodstream forms after 60 secs by scintillation counting analysis
Trypanosoma brucei [18] = assay: Antitrypanosomal activity against isometamidium resistant Trypanosoma brucei ISMR1 after 48 hrs by alamar blue assay; assay type: functional, organism-based; conditions: ISMR1, 48 h
Trypanosoma brucei [19] = assay: Resistance factor, ratio of EC50 for isometamidium resistant Trypanosoma brucei […] to EC50 for wild type Trypanosoma brucei Lister 427; assay type: functional
UGT [20] = assay: Drug metabolism in rat liver S9 fraction assessed as UGT-mediated metabolism by measuring parent compound remaining at 5 uM measured after 15 mins in presence of UDPGA by UPLC analysis; assay type: ADME, subcellular; conditions: read-out: Stability
UGT [21] = molecular target: T1, UGT; assay: Drug metabolism in human liver S9 fraction assessed as UGT-mediated metabolism by measuring parent compound remaining at 5 uM measured immediately in presence of UDPGA by UPLC analysis; assay type: ADME, subcellular; conditions: read-out: Stability
CYP450 [22] = molecular target: T2, CYP450; assay: Drug metabolism in human liver S9 fraction assessed as CYP450-mediated metabolism by measuring parent compound remaining at 5 uM measured after 60 mins in presence of NADPH by UPLC analysis; assay type: ADME, subcellular; conditions: read-out: Stability
[23] = Drug metabolism in rat liver S9 fraction assessed as UGT-mediated metabolism by measuring parent compound remaining at 5 uM measured after 60 mins in presence of UDPGA by UPLC analysis; assay type: ADME, subcellular; conditions: s9, 1 h
CYP450 [24] = assay: Drug metabolism in mouse liver S9 fraction assessed as CYP450-mediated metabolism by measuring parent compound remaining at 5 uM measured immediately in presence of NADPH by UPLC analysis; assay type: ADME, subcellular; conditions: read-out: Stability
CYP450 [25] = molecular target: T2, CYP450; assay: Drug metabolism in human liver S9 fraction assessed as CYP450-mediated metabolism by measuring parent compound remaining at 5 uM measured immediately in presence of NADPH by UPLC analysis; assay type: ADME, subcellular; conditions: read-out: Stability
[26] = Selectivity index, ratio of EC50 for human MRC5 cells to EC50 for Trypanosoma brucei brucei Squib 427; assay type: toxicity; conditions: read-out: Ratio EC50
Trypanosoma brucei [27] = assay: Antitrypanosomal activity against wild type Trypanosoma brucei Lister 427 after 48 hrs by alamar blue assay; assay type: functional, organism-based; conditions: Lister 427, 48 h
CYP450 [28] = assay: Drug metabolism in rat liver S9 fraction assessed as CYP450-mediated metabolism by measuring parent compound remaining at 5 uM measured after 15 mins in presence of NADPH by UPLC analysis; assay type: ADME, subcellular; conditions: read-out: Stability
[29] = tested on: UDP-glucuronosyltransferases (UGTs); assay: Drug metabolism in human liver S9 fraction assessed as UGT-mediated metabolism by measuring parent compound remaining at 5 uM measured after 30 mins in presence of UDPGA by UPLC analysis; assay type: ADME, subcellular; conditions: s9, 0.5 h
Trypanosoma cruzi = assay: Antitrypanosomal activity against nifurtimox-sensitive Trypanosoma cruzi Tulahuen CL2 harboring beta-galactosidase infected in human MRC5 cells after 7 days by resazurin dye-based assay; assay type: functional, organism-based
CYP450 [30] = assay: Drug metabolism in rat liver S9 fraction assessed as CYP450-mediated metabolism by measuring parent compound remaining at 5 uM measured after 60 mins in presence of NADPH by UPLC analysis; assay type: ADME, subcellular; conditions: read-out: Stability
[31] = Drug metabolism in mouse liver S9 fraction assessed as UGT-mediated metabolism by measuring parent compound remaining at 5 uM measured after 60 mins in presence of UDPGA by UPLC analysis; assay type: ADME, subcellular; conditions: s9, 1 h
Trypanosoma brucei [32] = assay: Resistance factor, ratio of EC50 for Trypanosoma brucei TbAT1-KO to EC50 for wild type Trypanosoma brucei Lister 427; assay type: functional
[33] = tested on: Trypanosoma brucei rhodesiense; assay: Antitrypanosomal activity against Trypanosoma brucei rhodesiense STIB-900 after 48 hrs by alamar blue assay; assay type: functional, organism-based; conditions: STIB-900, 48 h
UGT [34] = assay: Drug metabolism in mouse liver S9 fraction assessed as UGT-mediated metabolism by measuring parent compound remaining at 5 uM measured after 15 mins in presence of UDPGA by UPLC analysis; assay type: ADME, subcellular; conditions: read-out: Stability
CYP450 [35] = assay: Drug metabolism in mouse liver S9 fraction assessed as CYP450-mediated metabolism by measuring parent compound remaining at 5 uM measured after 60 mins in presence of NADPH by UPLC analysis; assay type: ADME, subcellular; conditions: read-out: Stability
Trypanosoma brucei [36] = assay: Antitrypanosomal activity against Trypanosoma brucei TbAT1-KO after 48 hrs by alamar blue assay; assay type: functional, organism-based
MRC5 = assay: Cytotoxicity against human MRC5 cells assessed as reduction in cell viability after 3 days by resazurin dye-based assay; conditions: MRC5, 72 h
CYP450 [37] = molecular target: T2, CYP450; assay: Drug metabolism in human liver S9 fraction assessed as CYP450-mediated metabolism by measuring parent compound remaining at 5 uM measured after 15 mins in presence of NADPH by UPLC analysis; assay type: ADME, subcellular; conditions: read-out: Stability

Nc1ncnc2c1c(-c1ccccn1)cn2[C@@H]1O[C@H](CO)[C@@H](O)[C@H]1O
remaining at 0.5 h, 5 µM (CYP450 [1]): 12.6% | Ratio EC50 (Trypanosoma brucei [2]): 1.6 | remaining at 0 min, 5 µM (UGT [3]): 100% | EC50 [4]: 0.31 µM | remaining at 1 h, 5 µM (UGT [5]): 92% | Stability [6]: 123% | remaining at 0.5 h, 5 µM (CYP450 [7]): 77% | selectivity ratio [8]: 487 | remaining at 0.5 h, 5 µM (UGT [9]): 102% | Ki [10]: 2.54 µM | remaining at 0 min, 5 µM (UGT [11]): 100% | EC50 (Trypanosoma brucei [12]): 0.27 µM | EC50 (Trypanosoma congolense): 0.2 µM | remaining at 0 min, 5 µM (CYP450 [13]): 100% | remaining at 0.25 h, 5 µM (CYP450 [14]): 36.5% | Stability [15]: 125% | remaining at 0.5 h, 5 µM (CYP450 [16]): 102% | Ki [17]: 4.57 µM | EC50 (Trypanosoma brucei [18]): 0.43 µM | Ratio EC50 (Trypanosoma brucei [19]): 2.5 | remaining at 0.25 h, 5 µM (UGT [20]): 115% | remaining at 0 min, 5 µM (UGT [21]): 100% | remaining at 1 h, 5 µM (CYP450 [22]): 82% | Stability [23]: 122% | remaining at 0 min, 5 µM (CYP450 [24]): 100% | remaining at 0 min, 5 µM (CYP450 [25]): 100% | selectivity ratio [26]: 49 | EC50 (Trypanosoma brucei [27]): 0.17 µM | remaining at 0.25 h, 5 µM (CYP450 [28]): 89% | Stability [29]: 121% | Activity (Trypanosoma cruzi): inactive | remaining at 1 h, 5 µM (CYP450 [30]): 31% | Stability [31]: 122% | Ratio EC50 (Trypanosoma brucei [32]): 2.4 | EC50 [33]: 0.031 µM | remaining at 0.25 h, 5 µM (UGT [34]): 112% | remaining at 1 h, 5 µM (CYP450 [35]): 1.9% | EC50 (Trypanosoma brucei [36]): 0.4 µM | EC50 (MRC5): 15.1 µM | remaining at 0.25 h, 5 µM (CYP450 [37]): 96%
